Test results as given in PubChem BioAssay AID248 (DTP/NCI, 2004).
“And” between values parts separate entries of the source, which are not always exact repeats. Equal values may be shown once. Inconclusive results and toxic doses are left out. Cut-off read from the data, not from the text of the source: active = T/C of 150% or more; inactive = T/C below 125%.

Tested on: L1210 leukemia ip in BDF1 mice, survival T/C
Test: NCI In Vivo Anticancer Drug Screen. Data for tumor model L1210 Leukemia (intraperitoneal) in B6D2F1 (BDF1) mice
Settings: endpoint: mean survival time, higher = longer survival
Procedure, shortened: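 Tumor cells were implanted, animals were treated, and survival was followed. The result divides the treated measurement by the vehicle-control measurement.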

[1] = dose: 25.0 mg/kg/injection, schedule: Q01DX009 (ip), vehicle: Klucel (hydroxypropylcellulose) (HPC)
[2] = dose: 50.0 mg/kg/injection, schedule: Q01DX009 (ip), vehicle: Klucel (hydroxypropylcellulose) (HPC)
[3] = dose: 100.0 mg/kg/injection, schedule: Q04DX003 (ip), vehicle: Klucel (hydroxypropylcellulose) (HPC)
[4] = dose: 100.0 mg/kg/injection, schedule: Q04DX003 (ip), vehicle: saline
[5] = dose: 200.0 mg/kg/injection, schedule: Q04DX003 (ip), vehicle: saline
[6] = dose: 50.0 mg/kg/injection, schedule: Q01DX001 (ip), vehicle: carboxymethylcellulose (CMC)
[7] = dose: 100.0 mg/kg/injection, schedule: Q01DX009 (ip), vehicle: saline with Tween-80
[8] = dose: 100.0 mg/kg/injection, schedule: Q01DX001 (ip), vehicle: carboxymethylcellulose (CMC)
[9] = dose: 200.0 mg/kg/injection, schedule: Q01DX001 (ip), vehicle: carboxymethylcellulose (CMC)
[10] = dose: 400.0 mg/kg/injection, schedule: Q01DX001 (ip), vehicle: carboxymethylcellulose (CMC)
[11] = dose: 100.0 mg/kg/injection, schedule: Q04DX003 (ip), vehicle: acetone
[12] = dose: 400.0 mg/kg/injection, schedule: Q04DX003 (ip), vehicle: acetone
[13] = dose: 50.0 mg/kg/injection, schedule: Q01DX001 (ip), vehicle: saline
[14] = dose: 100.0 mg/kg/injection, schedule: Q01DX001 (ip), vehicle: saline

Measured: T/C

CCCCCCCCC(=O)N1CCOCC1
inactive: dose: 4.68 mg/kg/injection, schedule: Q01DX009 (ip), vehicle: saline 97 % of control | dose: 9.37 mg/kg/injection, schedule: Q01DX009 (ip), vehicle: saline 97 % of control | dose: 12.5 mg/kg/injection, schedule: Q04DX003 (ip), vehicle: Klucel (hydroxypropylcellulose) (HPC) 99 % of control | dose: 18.75 mg/kg/injection, schedule: Q01DX009 (ip), vehicle: saline 97 % of control | [1] 104 % of control | dose: 25.0 mg/kg/injection, schedule: Q04DX003 (ip), vehicle: Klucel (hydroxypropylcellulose) (HPC) 103 % of control and 104 % of control | dose: 37.5 mg/kg/injection, schedule: Q01DX009 (ip), vehicle: saline 95 % of control | [2] 96 % of control | dose: 50.0 mg/kg/injection, schedule: Q04DX003 (ip), vehicle: Klucel (hydroxypropylcellulose) (HPC) 101 % of control | [3] 92 % of control

Brc1c2ccccc2cc2ccccc12
inactive: dose: 100.0 mg/kg/injection, schedule: Q04DX002 (ip), vehicle: gum acacia 101 % of control | dose: 200.0 mg/kg/injection, schedule: Q04DX002 (ip), vehicle: gum acacia 93 % of control | dose: 400.0 mg/kg/injection, schedule: Q04DX002 (ip), vehicle: gum acacia 96 % of control

C(=C\CN(Cc1ccccc1)Cc1ccccc1)/CN(Cc1ccccc1)Cc1ccccc1
inactive: [3] 90 % of control | dose: 200.0 mg/kg/injection, schedule: Q04DX003 (ip), vehicle: Klucel (hydroxypropylcellulose) (HPC) 87 % of control | dose: 400.0 mg/kg/injection, schedule: Q04DX003 (ip), vehicle: Klucel (hydroxypropylcellulose) (HPC) 87 % of control

OCC[S+](CCO)CCO
inactive: [4] 105 % of control | [5] 102 % of control | dose: 400.0 mg/kg/injection, schedule: Q04DX003 (ip), vehicle: saline 104 % of control

Fc1cc(N(CCCl)CCCl)ccc1CNCCCNCc1ccc(N(CCCl)CCCl)cc1F
inactive: [6] 93 % of control

Cc1ccc(C(=O)n2c(Cl)c(/C=N/NC(N)=S)c3ccccc32)cc1
inactive: dose: 50.0 mg/kg/injection, schedule: Q04DX002 (ip), vehicle: Klucel (hydroxypropylcellulose) (HPC) 87 % of control | dose: 100.0 mg/kg/injection, schedule: Q04DX002 (ip), vehicle: Klucel (hydroxypropylcellulose) (HPC) 95 % of control

CN(c1ccccc1)S(=O)(=O)c1ccc(N)cc1
inactive: dose: 100.0 mg/kg/injection, schedule: Q01DX001 (ip), vehicle: Klucel (hydroxypropylcellulose) (HPC) 96 % of control | dose: 200.0 mg/kg/injection, schedule: Q01DX001 (ip), vehicle: Klucel (hydroxypropylcellulose) (HPC) 104 % of control | dose: 400.0 mg/kg/injection, schedule: Q01DX001 (ip), vehicle: Klucel (hydroxypropylcellulose) (HPC) 102 % of control

Cc1c(NC(=O)Nc2cccc(F)c2)c(=O)n(-c2ccccc2)n1C
inactive: [7] 101 % of control | dose: 100.0 mg/kg/injection, schedule: Q04DX003 (ip), vehicle: saline with Tween-80 104 % of control | dose: 200.0 mg/kg/injection, schedule: Q01DX009 (ip), vehicle: saline with Tween-80 98 % of control | dose: 200.0 mg/kg/injection, schedule: Q04DX003 (ip), vehicle: saline with Tween-80 104 % of control | dose: 400.0 mg/kg/injection, schedule: Q01DX009 (ip), vehicle: saline with Tween-80 98 % of control | dose: 400.0 mg/kg/injection, schedule: Q04DX003 (ip), vehicle: saline with Tween-80 101 % of control

O=C(O)c1c[nH]c2c(C(F)(F)F)cccc2c1=O
inactive: [6] 88 % of control | [8] 98 % of control | [9] 88 % of control | [10] 90 % of control

COc1cc(N/C(N)=N\C(N)=NC(C)C)cc(OC)c1OC
inactive: dose: 50.0 mg/kg/injection, schedule: Q01DX009 (ip), vehicle: saline sonified 98 % of control | dose: 100.0 mg/kg/injection, schedule: Q01DX009 (ip), vehicle: saline sonified 101 % of control | [4] 104 % of control | dose: 200.0 mg/kg/injection, schedule: Q01DX009 (ip), vehicle: saline sonified 102 % of control | [5] 110 % of control

Nc1ccc2c(c1)C(=O)c1c(F)cccc1-2
inactive: [11] 98 % of control | dose: 200.0 mg/kg/injection, schedule: Q04DX003 (ip), vehicle: acetone 94 % of control | [12] 91 % of control

CC(C)C(C(=O)c1ccccc1)C(c1ccccc1)c1ccccc1 (stereo unspecified)
inactive: dose: 100.0 mg/kg/injection, schedule: Q01DX009 (ip), vehicle: other 103 % of control | dose: 200.0 mg/kg/injection, schedule: Q01DX009 (ip), vehicle: other 90 % of control | dose: 400.0 mg/kg/injection, schedule: Q01DX009 (ip), vehicle: other 103 % of control

CC1(C)[C@@H]2CC[C@@]1(CS(=O)(=O)O)C(=O)C2
inactive: dose: 100.0 mg/kg/injection, schedule: Q04DX002 (ip), vehicle: other 95 % of control | dose: 200.0 mg/kg/injection, schedule: Q04DX002 (ip), vehicle: other 92 % of control

Nc1sc(C(=O)O)cc1[N+](=O)[O-]
inactive: [9] 92 % of control | [10] 92 % of control

NC(=O)Nc1cccc2c1-c1ccccc1C2=O
inactive: [11] 88 % of control | [12] 100 % of control

ClC(c1ccccc1)C(Cl)c1ccccc1 (stereo unspecified)
inactive: [6] 101 % of control | dose: 75.0 mg/kg/injection, schedule: Q04DX002 (ip), vehicle: Klucel (hydroxypropylcellulose) (HPC) 109 % of control | [8] 106 % of control | dose: 150.0 mg/kg/injection, schedule: Q04DX002 (ip), vehicle: Klucel (hydroxypropylcellulose) (HPC) 95 % of control | [9] 101 % of control | dose: 300.0 mg/kg/injection, schedule: Q04DX002 (ip), vehicle: Klucel (hydroxypropylcellulose) (HPC) 92 % of control | [10] 101 % of control

Brc1cc(Br)c(N=Nc2c(Br)cc(Br)cc2Br)c(Br)c1
inactive: [13] 95 % of control | [14] 95 % of control | dose: 200.0 mg/kg/injection, schedule: Q01DX001 (ip), vehicle: saline 95 % of control | dose: 400.0 mg/kg/injection, schedule: Q01DX001 (ip), vehicle: saline 101 % of control

CC(=O)Nc1ccc(S(=O)(=O)Nc2ccccc2F)cc1
inactive: dose: 100.0 mg/kg/injection, schedule: Q01DX009 (ip), vehicle: saline 102 % of control | dose: 200.0 mg/kg/injection, schedule: Q01DX009 (ip), vehicle: saline 102 % of control | dose: 400.0 mg/kg/injection, schedule: Q01DX009 (ip), vehicle: saline 105 % of control

COCCOc1nccc(N)n1
inactive: dose: 25.0 mg/kg/injection, schedule: Q01DX001 (ip), vehicle: saline 97 % of control | [13] 97 % of control | [14] 100 % of control

CN(C)C(=O)NN
inactive: [7] 104 % of control

O=S(=O)(O)Cc1c(O)ccc2ccccc12
inactive: [1] 96 % of control | [2] 104 % of control | dose: 100.0 mg/kg/injection, schedule: Q01DX009 (ip), vehicle: Klucel (hydroxypropylcellulose) (HPC) 96 % of control | dose: 100.0 mg/kg/injection, schedule: Q04DX002 (ip), vehicle: saline with Tween-80 100 % of control | dose: 200.0 mg/kg/injection, schedule: Q04DX002 (ip), vehicle: saline with Tween-80 100 % of control | dose: 400.0 mg/kg/injection, schedule: Q04DX002 (ip), vehicle: saline with Tween-80 103 % of control
